Reference: patent US20260097047A1, “Small molecule inhibitors of the ribosome biogenesis factor NVL2” (Board of Regents, The University of Texas System, priority 2023, published 2026)
Read-outs that look alike come from different tables or passages of the source.

Legend:
HCT116 NVL^P307T cells = experiment: Cell viability in compound-resistant HCT116 NVL^P307T cells; assay type: cell-based, human; conditions: for IC50: Homo sapiens, HCT-116, NVL^P307T
Text: Assessing the ability of NVL2 inhibitors to selectively kill WT versus NVL2^mut HCT116, block ribosome biogenesis and induce p53. We evaluate analogs in the colorectal cancer cell line HCT116 and already available compound-resistant clones. One clone has a mutation in the compound binding site (NVL2^R403W) and another clone (NVL2^P307T) has a mutation distant from the binding site that confers resistance through an unknown effect. Based on our results, analogs that kill HCT116 cells via NVL2 inhibition (on-target) have reduced potency in compound-resistant HCT116 mutant clones. Our analogs have been counter-screened against the NVL2 compound-resistant mutant clones with fold resistance range between 10-100 fold (most analogs 20-50 fold). This counter screen provides a strategy for identifying off-target toxins.
From whole exome sequencing, we identified variants that were acquired during IAA-induced mutagenesis with the hypothesis that genes related to resistance will be mutated in multiple clones. Two genes contained acquired variants in at least 3 of the 15 selected clones: TERT, mutated in 3 of 15 clones, and NVL, mutated in all 15 clones. […] In sum, 57 out of 59 unique clones harbored NVL mutations. The majority of mutations clustered within the D1 AAA+ ATPase domain and frequently affecting the same codons. To test whether these mutations are sufficient for MM017 resistance, we used CRISPR-Cas9 to knock-in two of the most resistant mutations (NVL^P307T, NVL^R403W) and a mutation with intermediate resistance (NVL^H304R). Transfection of cells with sgRNAs targeting these NVL residues in addition to a mutation-encoding repair template yielded an increased rate of resistance when compared to mock treatments.
HCT116 cells were transfected with TransIT-LT (Mirus #MIR2304) according to manufacturer's protocol with a guide RNA (either mock or NVL targeting) in the px330 vector (Addgene, #42230), and 10 nM single stranded deoxyoligonucleotide encoding a specific NVL mutation (see below for specific sequences). 72 hours after transfection, cells were selected by MM017 treatment. The resulting cells were evaluated by cresyl violet staining or collected and the relevant NVL mutations were analyzed by either amplicon or sanger sequencing.
Cell viability assay: In 96-well assay plates (Corning #2903), 2,000 cells were plated per well in 100 μL of medium and allowed to adhere overnight. The next day, compounds suspended in DMSO were dispensed to the assayed wells using a D300e Digital Dispenser (Tecan). All wells were normalized to 0.5% DMSO. 72 hours after incubation at 37° C. in 5% CO2, cell viability was assayed using an ATP-based luminescent viability assay, CellTiter-Glo (Promega #G8462). Substrate was mixed 1:1 with phosphate-buffered saline (PBS) supplemented with 1% Triton X-100, and 40 μL of this mixture was added to the assay wells. Plates were shaken on a microplate shaker for 10 minutes at room temperature. Luminescence (CellTiter-Glo) was recorded using a Synergy 2 microplate reader (BioTek). In Prism 9 software (GraphPad), ten-point dose response curves were plotted with baseline-correction to the vehicle control well, and IC50 values were calculated by curve fitting using asymmetric (five parameter), least squares fit.

HCT116 cells = experiment: Cell viability assay (CellTiter-Glo, 72 hours) in HCT116 human colorectal cancer cells; assay type: cell-based; conditions: for IC50: Homo sapiens, HCT-116
Method in brief: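 2,000 cells/well adhered overnight, then compound added by digital dispenser with DMSO normalized to 0.5%. Viability read after 72 h at 37 °C by ATP-based CellTiter-Glo luminescence. IC50 from ten-point curves baseline-corrected to vehicle, five-parameter asymmetric least-squares fit.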

cleaved caspase-3 = experiment: Cleaved caspase-3 (apoptosis), HCT116 control and p53 KO cells; assay type: cell-based, human
Text: The upregulation of p53 and its effector p21 can arrest cell growth or induce cell death through apoptosis. […] Next, we addressed whether cell death was mediated by an apoptotic pathway by assaying for cleaved caspase-3, a bona fide marker of apoptosis.

[1] = tested on: 60S, 80S and 40S ribosomal subunits; experiment: Polysome profiling; assay type: cell-based, human
Text: NVL2 in yeast is essential for 60S ribosomal maturation, and therefore, we hypothesized that MM017 might decrease 60S ribosome synthesis. To test this hypothesis, we subjected either parental or NVL mutant cells treated with MM017 for different time points to polysome profiling. Polysome profiling uses a sucrose gradient to fractionate the complete ribosome (80S) from its components, the large (60S) and small (40S) subunit. […] Since the 80S is a complex of the 40S and 60S ribosomes, fewer 60S ribosomes are expected to result in increased free 40S subunits. All of these changes are the result of binding NVL2 since they were not present in the NVL2^R403W mutant cells. Taken together, these observations indicate that MM017 inhibits NVL2 leading to reduced 60S ribosome.
We next assessed the impact of disrupting NVL on the distribution of ribosomal species using polysome profiling. Addition of Ph-IAA to induce NVL degradation in NVL^AID/AID cells led to a time-dependent reduction in free 60S and 80S levels (based on absorbance at 260 nm) and a concomitant increase in 40S levels. […] The polysome profiles following NVL disruption in HCT116 cells appear similar to those reported in yeast with RIX7 mutations (37) or in human cells overexpressing catalytic mutants of NVL (38).

[2] = tested on: MM017-resistant iHCT116 clones; experiment: Forward genetics: MM017-resistant iHCT116 clones (NVL mutations); assay type: cell-based, human; conditions: summary statement

IC50 (HCT116 cells; NVL^WT, read-out: IC50)	SMILES	resistance of NVL^P307T cells (HCT116 NVL^P307T cells)	IC50 (HCT116 NVL^P307T cells)	cleaved caspase-3 (cleaved caspase-3)	polysome profile, NVL^P307T cells ([1]; NVL^P307T)	polysome profile, parental cells ([1]; parental HCT116)	resistance caused by mutations in NVL2 [2]	potency relative to parent compound MM017 (HCT116 cells; HCT116 proliferation)	IC50 (HCT116 cells; read-out: IC50, HCT116 proliferation)
380 nM	COCCN1C(=O)c2ccccc2Sc2cc(NC(=O)c3ccoc3)ccc21 [MM017]	comparatively resistant	> 50000 nM	substantially reduced in p53 KO cells	no changes in polysome profiles	time-dependent decrease in the 60S and 80S ribosomal subunits	30 fold	–	–
–	CC#CCN1C(=O)c2ccc(F)cc2Sc2cc(NC(=O)c3ccc4oc(=O)n(C)c4c3)ccc21 [MM927, N-(10-(But-2-yn-1-yl)-3-fluoro-11-oxo-10,11-dihydrodibenzo[b,f][1,4]thiazepin-7-yl)-3-methyl-2-oxo-2,3-dihydrobenzo[d]oxazole-5-carboxamide]	relatively resistant	1670 nM	–	–	–	–	five times more potent	79 nM
